Patent publication US7994204B2, “Binding inhibitor of sphingosine-1-phosphate” (Taisho Pharmaceutical Co., Ltd, priority 2006, dated 2011)

What was measured:
human Edg-1 (S1P1) = biological target: T1, human Edg-1 (S1P1) (Homo sapiens, UniProt P21453); assay: S1P1 binding inhibition test (membrane, [33P]-S1P); settings: for inhibition at 10 µM: compound 10 μM, [33P]-S1P 0.1 nM, human Edg-1 (S1P1) HEK-293 membrane fraction, read-out: Binding test (membrane) % inhibition (10 μM); for IC50: membrane system binding test, various concentrations
T1 construct: expressed in transfected cells; host or cells: HEK-293
Outline: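 Membranes from Edg-1 (S1P1)-expressing HEK-293 cells incubated 1 h at 30 °C in pH 7.4 Tris buffer with 0.1 nM [33P]-S1P and compound (10^−5 M, or various concentrations for IC50). Filter-bound radioactivity counted; background from non-transfected HEK-293 membranes; inhibition = [1−(A−C)/(B−C)]×100.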

T1 sequence (P21453 whole entry): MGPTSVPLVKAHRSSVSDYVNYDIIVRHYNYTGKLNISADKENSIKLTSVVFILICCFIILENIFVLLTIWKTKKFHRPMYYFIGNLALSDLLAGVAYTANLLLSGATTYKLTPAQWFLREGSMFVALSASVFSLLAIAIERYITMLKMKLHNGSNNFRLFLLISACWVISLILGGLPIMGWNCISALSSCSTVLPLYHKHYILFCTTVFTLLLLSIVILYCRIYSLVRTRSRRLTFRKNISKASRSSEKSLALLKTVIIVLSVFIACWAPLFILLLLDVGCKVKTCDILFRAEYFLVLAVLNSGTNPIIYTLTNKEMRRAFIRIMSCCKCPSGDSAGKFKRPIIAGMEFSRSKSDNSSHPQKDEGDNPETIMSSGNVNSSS

| SMILES | inhibition at 10 µM (human Edg-1 (S1P1)) | melting point | IC50 (human Edg-1 (S1P1)) |
| --- | --- | --- | --- |
| CCn1c(C(NS(=O)(=O)c2ccc3c(Cl)cccc3c2)c2ccccc2)cnc1Oc1ccc(F)cc1 (stereo not shown) [Compound 202] | 69.3% | 171.5 to 172.5 °C |  |
| CCn1c(C(Cc2ccc(C)cc2)NS(=O)(=O)c2ccc(Cl)c(Cl)c2)cnc1Oc1ccc(F)cc1 (stereo not shown) [Compound 196] | 88.9% | 123.5 to 124 °C |  |
| CCn1c(C(C)NS(=O)(=O)c2ccc(Cl)c(Cl)c2)cnc1Oc1ccc2ccccc2c1 (stereo not shown) [Compound 206] | 98.5% | 172 to 173 °C |  |
| CCn1c(C(Cc2ccc(C)cc2)NS(=O)(=O)c2ccc3c(Cl)cccc3c2)cnc1Oc1ccc(F)cc1 (stereo not shown) [Compound 197] | 95.3% | 166 to 167 °C |  |
| CCC(NS(=O)(=O)c1ccc2c(Cl)cccc2c1)c1cnc(Oc2ccc(F)cc2)n1CC (stereo not shown) [Compound 192] | 101% | 118 to 120 °C | 23 nM |
| CCn1c(C(C)NS(=O)(=O)c2ccc(Cl)c(Cl)c2)cnc1Oc1ccc(C)nc1 (stereo not shown) [Compound 195] | 96.1% | 174 to 175 °C | 20 nM |
| CCn1c(C(C)NS(=O)(=O)c2ccc3c(Cl)cccc3c2)cnc1Oc1ccc(F)cc1 (stereo not shown) [Compound 187] | 101% | 138 to 141 °C | ≤ 35 nM |
| CCn1c(C(C)NS(=O)(=O)c2ccc(Cl)c(Cl)c2)cnc1Oc1cccc(C2CCN(C)CC2)c1 (stereo not shown) [Compound 207] | 101% | 161 to 163.5 °C | 18.2 nM |
| CCn1c(C(C)NS(=O)(=O)c2ccc(Cl)c(Cl)c2)cnc1Oc1ccccc1 (stereo not shown) [Compound 204] | 95.7% | 166.5 to 167.5 °C |  |

Results, then the compound that gave them:

| inhibition at 10 µM (human Edg-1 (S1P1)) | melting point | IC50 (human Edg-1 (S1P1)) | SMILES |
| --- | --- | --- | --- |
| 101% | 220 to 223 °C | ≤ 15 nM | CCn1c(C(C)NS(=O)(=O)c2ccc3c(Cl)ccc(Cl)c3c2)cnc1Oc1cccc(N2CCN(C)CC2)c1 (stereo not shown) [Compound 246] |
| 102% | 167 to 168 °C | ≤ 70 nM | CCn1c(C(C)NS(=O)(=O)c2ccc(Cl)c(Cl)c2)cnc1Oc1ccc(OCCN2CCOCC2)cc1 (stereo not shown) [Compound 214] |
| 96.3% | 146 to 148 °C |  | CCn1c(C(C)NS(=O)(=O)c2ccc(Cl)c(Cl)c2)cnc1Oc1cc(C(F)(F)F)n(C)n1 (stereo not shown) [Compound 217] |
| 94% | 137.5 to 142.5 °C | 58.5 nM | CCn1c(C(C)NS(=O)(=O)c2ccc(Cl)c(Cl)c2)cnc1OCCCCCCN(C)C (stereo not shown) [Compound 235] |
| 98.9% | 170 to 171 °C | 42 nM | CCn1c(C(C)NS(=O)(=O)c2ccc(Cl)c(Cl)c2)cnc1Oc1cccc(-n2ccnc2)c1 (stereo not shown) [Compound 209] |
| 99.9% | 196 to 198 °C | ≤ 15 nM | CCn1c(C(C)NS(=O)(=O)c2ccc3cccc(Cl)c3c2)cnc1Oc1cccc(N2CCN(C)CC2)c1 (stereo not shown) [Compound 247] |
| 98.3% | 160 to 162 °C | 32.5 nM | CCn1c(C(C)NS(=O)(=O)c2ccc3c(c2)CCC3)cnc1Oc1cccc(N2CCN(C)CC2)c1 (stereo not shown) [Compound 244] |
| 101% | 102.5 to 107.5 °C |  | CCn1c(C(C)NS(=O)(=O)c2ccc(Cl)c(Cl)c2)cnc1Oc1ccc(C)c(C)c1 (stereo not shown) [Compound 218] |
| 90.6% | 154 to 155 °C |  | CCn1c(CNS(=O)(=O)c2ccc(Cl)c(Cl)c2)cnc1Oc1ccc(F)cc1 [Compound 210] |
| 98.9% | 141 to 143 °C |  | CCn1c(C(C)NS(=O)(=O)/C=C/c2ccccc2)cnc1Oc1cccc(N2CCN(C)CC2)c1 (stereo not shown) [Compound 245] |
| 91.5% | 172.5 to 173.5 °C |  | C#CCCCOc1ncc(C(C)NS(=O)(=O)c2ccc(Cl)c(Cl)c2)n1CC (stereo not shown) [Compound 226] |
| 92.2% | 179.5 to 180.5 °C |  | CC(NS(=O)(=O)c1ccc(Cl)c(Cl)c1)c1cnc(Oc2ccc(F)cc2)n1C (stereo not shown) [Compound 211] |
